Data: patent publication US11472814B2, “Thienopyranones and furanopyranones as checkpoint inhibitors and modulators of anti-tumor immunity” (SignalRx Pharmaceuticals, Inc., priority 2017, dated 2022)
pIC50: −log10 of the molar value. Entries after “also recorded” stand apart in the source; their conditions may differ.

Experiments:
[1] = system: T cells in LLC tumors; assay: Quantification of CD3+, CD4+ and CD8+ T cells in LLC tumors; type: in vivo, mice
Source text: Quantification of CD3+, CD4+ and CD8+ T cells in the LLC tumors treated with Compound 3 (n=3, *p<0.05, t test). Conclusion: Compound 3 decreased CD4+ cells by 50% and increased CD8+ T cells in the tumor compartment by 7% in vivo as compared to vehicle control treated mice.

[2] = system: CT26 tumor cells; assay: In vitro viability of CT26 tumor cells; type: cell-based; conditions: for % Cell Viability: CT26 tumor cells in vitro
Source text: (§1) We investigated the effect of Compound 3 on immune cell in vitro and on tumor growth in in vivo in immunocompetent syngeneic tumor models and the effects on the macrophage and T cell immune compartment in vivo by this compound. […] In order to distinguish whether Compound 3 blocks tumor growth due to its effect on immune cell compartment and not on tumor compartment, we tested the effect of this chemotype on CT26 tumor growth in immunodeficient NSG mice vs immunocompetent Balb/c mice. […] Compound 3 has combinatorial immune-oncologic activity in vivo to stimulate anti-cancer innate and adaptive immunity in well-defined accepted immune competent murine models for cancer immunotherapy.
Compound 3 has no effect on the in vitro viability of CT26 tumor cells.

[3] = system: LLC tumors, Ifng and Gzmb mRNA; assay: mRNA expression of Ifng and Gzmb in LLC tumors; type: in vivo, mice; conditions: normalized to GAPDH
Procedure: Effect of Compound 3 treatment in vivo at 10 mg/kg dose on mRNA expression of interferon (Ifng) gamma and granzyme b (Gzmb) in LLC tumors implanted in vehicle vs Compound 3 treated mice (n=3, biological replicates, p<0.05, t test). Relative gene expression is normalized to a house keeping gene, GAPDH for comparison.

[4] = biological target: T1, PI3K α (Homo sapiens, UniProt P42336); assay: PI3K alpha inhibition IC50 (Thermo Fisher); type: biochemical; conditions: 10-point curve
T1 construct: purchased Thermo Fisher Scientific-Biosciences Life Sciences Solutions, Madison, Wis; (contract assay service)
Source text: The inhibitory activity of a compound of the invention against PI3K and/or BRD4 and/or SYK and/or CDK4/6 can be readily determined using methods known to the skilled artisan, or by commercial vendors offering such services. […] In vivo, PI3K inhibition can be determined from target tissue biopsies by standard tissue processing to disrupt cells and then performing Western Blot analysis to determine the presence or absence of pAKT (substrate of PI3K) relative to a control sample. The activity of a compound of the invention as an inhibitor of a bromodomain-containing protein, such as a BET protein, such as BRD2, BRD3, BRD4, and/or BRDT, or an isoform or mutant thereof, may be determined in vitro, in vivo, or in a cell line. In vitro assays include assays that determine inhibition of bromodomain-containing proteins. Alternatively, inhibitor binding may be determined by running a competition experiment where a provided compound is incubated with a bromodomain-containing protein, such as a BET protein bound to known ligands, labeled or unlabeled. For example, bromodomain inhibition can be determined in vitro using Alpha Screen Technology (http://www.reactionbiologv.com/webapps/site/NewsPDFs/Bromodomain%20Assay %20Platform %20for %20Drug %20Screening %20and %20Discovery.pdf). In vivo bromodomain inhibition can be determined indirectly by evaluating the amount of protein present of proteins whose genes' transcription is influenced or controlled by the bromodomain protein, for example, the MYCN protein transcription is controlled by BRD4 (J. E. Delmore et al., Cell 2011, 146, 904-917; A. Puissant, Cancer Discov. 2013, 3, 308-323). Bromodomain inhibition may also be predicted by in silico modeling as described below in the Examples. Additionally, the company Promega offers a SYK luminescent assay to determine a compound's ability to inhibit the SYK protein (https://www.promega.com/-/media/files/resources/protocols/kinase-enzyme-appnotes/syk-kinase-assay-protocol.pdf?la=en).
Compounds of the invention were characterized for their ability to inhibit target proteins using third party vendors offering such services. PI3K alpha, gamma, and delta inhibition activity was determined by Thermo Fisher Scientific-Biosciences Life Sciences Solutions, Madison, Wis. The bromodomain protein inhibition (binding domain 1 and 2 of BRD4) as well as SYK inhibition was determined at Reaction Biology Corp., Malvern, Pa. […] The IC50 data (shown below in Table 5) was calculated from a 10-point curve and is expressed in nanomolar concentration (nM) rounded off to the nearest whole number. […]

[5] = system: T cells in CT26 tumors; assay: Flow cytometric quantification of T cells infiltrating CT26 tumors; type: in vivo, mice
Procedure: Effect of Compound 3 treatment of CT26 tumor bearing mice in vivo 3 mg/kg by intraperitoneal injection QD (IP) for 14 days on number of CD3+/CD8+ T cells infiltrating the tumor tissue. Conclusion: Compound 3 increased CD8+ T cells in the tumor compartment by 800% in vivo. (n=6, p<0.001, t test) as compared to vehicle control treated mice.
Values represent mean±SEM. Conclusion: Compound 3 decreased CD4+ T cells by 5.6-fold and increased CD8+ T cells in the tumor compartment by 6% in vivo as compared to vehicle control treated mice.

[6] = system: MC38 tumors; assay: MC38 tumor growth in immunocompetent murine model; type: in vivo; conditions: vs vehicle
Source text: as §1
In contrast to above data, Compound 3 has a marked significant inhibitory effect on CT26, LLC and MC38 tumor growth in immunocompetent murine models. Conclusion: this establishes effect of Compound 3 as immune-oncologically active agent in cancer immunotherapy. In immunocompetent mice with same tumor cell inoculum Compound 3 inhibited tumor growth by from 58-68%. p<0.001 in all experiments compared to vehicle control.

[7] = CT26 tumors, flow cytometry, vs vehicle

T1 sequence (P42336 whole entry): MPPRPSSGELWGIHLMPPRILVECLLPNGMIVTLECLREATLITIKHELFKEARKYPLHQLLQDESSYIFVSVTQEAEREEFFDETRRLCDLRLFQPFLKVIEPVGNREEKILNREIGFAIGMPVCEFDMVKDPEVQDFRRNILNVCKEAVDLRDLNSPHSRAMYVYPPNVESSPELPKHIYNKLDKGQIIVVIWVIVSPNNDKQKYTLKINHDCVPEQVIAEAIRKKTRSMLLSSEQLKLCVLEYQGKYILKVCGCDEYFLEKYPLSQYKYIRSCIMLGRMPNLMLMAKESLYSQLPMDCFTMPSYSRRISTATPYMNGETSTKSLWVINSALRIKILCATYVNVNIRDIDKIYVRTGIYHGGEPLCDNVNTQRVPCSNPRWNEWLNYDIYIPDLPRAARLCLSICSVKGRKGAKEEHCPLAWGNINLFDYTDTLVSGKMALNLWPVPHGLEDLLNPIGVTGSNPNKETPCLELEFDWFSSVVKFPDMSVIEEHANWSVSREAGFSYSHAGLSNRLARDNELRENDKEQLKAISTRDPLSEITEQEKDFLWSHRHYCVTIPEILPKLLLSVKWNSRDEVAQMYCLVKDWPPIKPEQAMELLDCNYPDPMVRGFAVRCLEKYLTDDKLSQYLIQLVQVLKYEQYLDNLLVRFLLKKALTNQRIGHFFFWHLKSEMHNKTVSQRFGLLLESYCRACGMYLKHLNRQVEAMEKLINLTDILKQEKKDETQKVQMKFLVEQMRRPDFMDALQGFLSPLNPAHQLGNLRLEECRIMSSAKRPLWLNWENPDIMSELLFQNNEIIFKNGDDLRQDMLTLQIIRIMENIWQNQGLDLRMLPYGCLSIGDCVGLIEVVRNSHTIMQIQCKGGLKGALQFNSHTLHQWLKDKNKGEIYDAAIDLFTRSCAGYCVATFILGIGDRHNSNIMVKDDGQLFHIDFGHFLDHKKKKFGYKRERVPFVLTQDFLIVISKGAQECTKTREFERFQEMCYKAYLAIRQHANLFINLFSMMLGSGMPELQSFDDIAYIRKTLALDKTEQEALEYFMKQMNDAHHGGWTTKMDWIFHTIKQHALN
T1 sequence (P27986 whole entry partner): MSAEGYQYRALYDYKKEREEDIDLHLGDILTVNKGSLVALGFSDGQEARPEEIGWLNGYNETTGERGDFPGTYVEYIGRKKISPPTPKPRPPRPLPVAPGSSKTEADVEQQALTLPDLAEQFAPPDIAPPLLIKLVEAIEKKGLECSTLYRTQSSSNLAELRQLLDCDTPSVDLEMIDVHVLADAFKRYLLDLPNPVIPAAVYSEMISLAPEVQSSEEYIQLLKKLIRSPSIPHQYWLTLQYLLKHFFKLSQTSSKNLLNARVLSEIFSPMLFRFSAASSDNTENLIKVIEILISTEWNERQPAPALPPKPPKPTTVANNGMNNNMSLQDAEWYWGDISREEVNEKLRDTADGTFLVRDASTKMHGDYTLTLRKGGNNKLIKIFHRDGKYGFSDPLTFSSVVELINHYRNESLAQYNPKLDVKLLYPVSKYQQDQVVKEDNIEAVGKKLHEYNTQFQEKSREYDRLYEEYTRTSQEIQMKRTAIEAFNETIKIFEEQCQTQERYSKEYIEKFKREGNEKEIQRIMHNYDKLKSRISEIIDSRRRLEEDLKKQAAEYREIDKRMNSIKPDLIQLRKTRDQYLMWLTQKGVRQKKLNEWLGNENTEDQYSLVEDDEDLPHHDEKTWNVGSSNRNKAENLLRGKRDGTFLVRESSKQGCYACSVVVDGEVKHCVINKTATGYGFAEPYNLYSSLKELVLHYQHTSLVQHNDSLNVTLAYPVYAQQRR

`Cc1nn(-c2ccnc(Nc3ccc(-c4csc5c(=O)cc(N6CCOCC6)oc45)cc3)n2)cc1CN1CCC1` [Compound 3, 3-[p-(4-{4-[(1-Azetidinyl)methyl]-3-methyl-1H-pyrazol-1-yl}-2-pyrimidinylamino)phenyl]-5-morpholino-4-oxa-1-thia-7-indenone] was tested, and the “CD4+ T cells (% of CD3+ T cells)” value ([1]; LLC tumor) was 23 ± 7, % of CD3+ T cells, the “CD8+ T cells (% of CD3+ T cells)” value ([1]; LLC tumor) was 34 ± 1.1, % of CD3+ T cells and the “decrease of CD4+ cells” value ([1]; LLC tumor, vs vehicle) was 50%. For the same compound, the “increase of CD8+ T cells in the tumor compartment” value (shortened to “increase of CD8+ T cells”) ([1]; vs vehicle) was 7%, the “in vitro viability of CT26 tumor cells” value [2] was “didn't show any effect; also recorded: no effect” and the “% Cell Viability” value ([2]; Log Inhibitor conc. 1.68867) was 96.5 ± 5.3%. The “% Cell Viability” value ([2]; Log Inhibitor conc. 1.9897) was 96 ± 8.0%, the “% Cell Viability” value ([2]; Log Inhibitor conc. 2.29073) was 91.6 ± 8.9% and the “% Cell Viability” value ([2]; Log Inhibitor conc. 2.59176) was 91.3 ± 5.13%. The “% Cell Viability” value ([2]; Log Inhibitor conc. 2.89279) was 89.8 ± 6.7%, the “% Cell Viability” value ([2]; Log Inhibitor conc. 3.19382) was 87.3 ± 4.1% and the “% Cell Viability” value ([2]; Log Inhibitor conc. 3.49485) was 87.1 ± 9.6%. For the same compound, the “% Cell Viability” value ([2]; Log Inhibitor conc. 3.79588) was 84.3 ± 4.3%, the “% Cell Viability” value ([2]; Log Inhibitor conc. 4.09691) was 83.9 ± 6.27% and the “% Cell Viability” value ([2]; Log Inhibitor conc. 4.39794) was 83.6 ± 5.1%. The “% Cell Viability” value ([2]; Log Inhibitor conc. 4.69897) was 77.4 ± 5.0%, the “Ifng mRNA expression in LLC tumors” value ([3]; 10 mg/kg in vivo, n=3, vehicle 0.8 ± 0.18) was 1.4 ± 0.27, and the “Gzmb mRNA expression in LLC tumors” value ([3]; 10 mg/kg in vivo, n=3, vehicle 0.87 ± 0.27) was 1.87 ± 0.5. For the same compound, the “expression of Ifng and Gzmb in LLC tumors” value ([3]; 10 mg/kg, vs vehicle) was “increased expression of the inflammatory cytokines, Ifng and GzmB; also recorded: increased the expression of immunostimulatory T cell immune effectors”, the pIC50 [4] was 6.00 to 7.00 and the “increase of CD8+ T cells” value ([5]; CT26, 3 mg/kg IP QD 14 days, CD3+/CD8+, vs vehicle) was 800%. For the same compound, the “decrease of CD4+ T cells” value [5, 7] was 5.6 fold, the “increase of CD8+ T cells” value [5, 7] was 6% and the “CD3+ T cells (% of live cells)” value ([5]; CT26 tumors, Compound 3 3 mg/kg IP QD 14 days, vehicle 1.1 ± 0.29) was 8 ± 0.46 % of live cells. For the same compound, the “CD8+ T cells (% of CD3+ T cells)” value ([5]; CT26 tumors, flow cytometry, mean±SEM, n=3, vehicle 56 ± 3.9) was 62 ± 2.0 % of CD3+ T cells, the “CD4+ T cells (% of CD3+ T cells)” value ([5]; CT26 tumors, flow cytometry, mean±SEM, n=3, vehicle 56 ± 5.29) was 9.5 ± 0.7 % of CD3+ T cells and the “% Growth inhibition of MC38 tumor” value [6] was 62 +/− 24%.
